# Data taken from US12643887B2, “Heterocyclic derivatives with cardiomyocyte proliferation activity for treatment of heart diseases” (Tongji University, priority 2019, dated 2026).
# pIC50: −log10 of the molar value.
# How the values were obtained:
# [1] = test system: Neonatal Rat Ventricular Myocytes (NRVMs); assay: Myocyte proliferation assay (EdU assay) in neonatal rat ventricular myocytes; type: cell-based; conditions: growth relative to blank myocyte growth without compound added; for Avg 1 uM (average myocyte proliferation): compound 1 uM; for Avg 3 uM (average myocyte proliferation): compound 3 uM; for Avg 10 uM (average myocyte proliferation): compound 10 uM
# Description: 1. Isolation of and Culture Neonatal Rat Ventricular Myocytes (NRVMs)
# Ventricles from neonatal rats were separated from the atria, cut into small pieces (about 2×2 mm^2) and then dissociated in Ca2+-free HBSS containing 0.125 mg ml-1 trypsin (Gibco), 10 μg ml-1 DNase II (Sigma) and 0.1 mg ml-1 collagenase type IV (Sigma). The digestion was carried out under constant stirring at 37° C. for 5 min. The supernatant was collected with FBS (Gibco) after each digestion period. After digestion, the collected supernatant was centrifuged at 1000 g for 10 min at room temperature, and then cell pellets were resuspended in DMEM (Gibco) supplemented with 10% FBS and with 100 uM 5-bromo-2′-deoxyuridine (Sigma). The resuspended cells were passed through a cell strainer ([…], BD Falcon) and seeded onto 100-mm plastic dishes for 2 h at 37° C. in a 5% CO2 to remove fibroblasts, the supernatant was then collected and plated onto 1% gelatin (Sigma)-coated dishes. 24 h after the seeding, the medium was changed to DMEM (Gibco) containing 2% FBS (Gibco), 1% insulin-transferrin-selenium (ITS; Gibco), 1% Penicillin-Streptomycin (Gibco). After 24 hours of low serum culture, remove the medium with DMEM (Gibco) containing 6% FBS (Gibco), 1% insulin-transferrin-selenium (ITS; Gibco), 1% Penicillin-Streptomycin (Gibco), different concentrations of compounds (the compounds were pre-diluted in the medium and the drug concentration was 10 uM, 3 uM, 1 uM, fully mixed). After 36 h add Edu substrate (Invitrogen) according to the manufacturer's guidelines, and then after 12 h cell can be used.
# • 2.1. Immobilization: Remove the medium and fix the cells with […] in 200 ul (whichever is covered) for 15 min and wash the cells twice with 500 ul of PBS for 5 min each time. • 2.2. Broken membrane: Add 200 ul of 0.3% Triton-X 100 (diluted in PBS) to each well, incubate for 10-15 min at room temperature (the time should not be too long), and wash the cells twice with 500 ul of PBS for 5 min each time. • 2.3. Blocking: Add 200 ul of 10% normal goat serum (diluted with 0.1% PBST) to each well, incubate for 1 h at room temperature, and wash twice with 500 ul of 0.1% PBST for 5 min each time. • 2.4. Primary antibody: dilute the primary antibody (abcam, ab8295) to blocking solution at a ratio of 1:200, add 100 ul per well, incubate for 1 h at room temperature (may be slightly longer than 2-3 h), wash the cells twice with 500 ul 0.1% PBST for 5 min each time. • 2.5. Secondary antibody: Dilute the fluorescently labeled secondary antibody (abcam, ab150117) into blocking solution at a ratio of 1:200, add 100 ul per well, incubate for 1 h at room temperature (the time should not be too long), wash the cells twice with 0.1% PBST for 5 min each time, pay attention to the whole process. Protected from light. • 2.6. Edu staining (Invitrogen C10338) • 2.6.1 Prepare Click-iT® reaction cocktail according to Table 3. It was important to add the ingredients in the order listed in the table; otherwise, the reaction would not proceed optimally. Use the Click-iT® reaction cocktail within 15 minutes of preparation.
# • 2.6.2 Add 0.1 mL of Click-iT® reaction cocktail to each well containing a coverslip. Rock the plate briefly to ensure that the reaction cocktail is distributed evenly over the coverslip. • 2.6.3 Incubate the plate for 30 minutes at room temperature, protected from light. • 2.6.4 Remove the reaction cocktail, then wash the cells twice with 0.1% PBST for 5 min each time. • 2.7. DAPI staining: DAPI stain was diluted to PBS at a ratio of 1:1000, 100 ul per well, incubated for 30 min at room temperature, and the cells were washed twice with PBS for 5 min each. 3. Data Analysis
# We used Molecular Devices' Image Xpress Micro Confocal for high-throughput photo and data analysis.
# [2] = biological target: T1, human CLK1 (Homo sapiens, UniProt P49759); assay: CLK1 enzyme assay (ADP-Glo); type: biochemical; conditions: ADP-Glo, ATP 10 μM; read-out: CLK1 IC50
# T1 construct: Recombinant human CLK1 (129-end); GST (N); purchased SignalChem C57-11G; host or cells: Sf9 insect cells
# T1 sequence (P49759 129-484 limits assumed): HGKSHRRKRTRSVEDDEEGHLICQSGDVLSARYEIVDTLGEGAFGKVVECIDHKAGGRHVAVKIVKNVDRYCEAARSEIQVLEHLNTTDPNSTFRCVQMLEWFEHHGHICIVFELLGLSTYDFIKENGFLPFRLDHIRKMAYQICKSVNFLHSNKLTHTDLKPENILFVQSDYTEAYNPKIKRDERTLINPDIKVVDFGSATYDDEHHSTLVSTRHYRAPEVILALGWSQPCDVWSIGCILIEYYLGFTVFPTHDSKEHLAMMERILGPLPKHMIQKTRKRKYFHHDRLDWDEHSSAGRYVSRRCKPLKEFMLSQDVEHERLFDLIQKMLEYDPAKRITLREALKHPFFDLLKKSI
# Description: The ability of compounds to inhibit human CLK1 kinase activities was determined using a commercially available ADP-Glo™ Kinase Assay kit (Promega, Cat #V9102) according to the manufacturer's protocol.
# Recombinant human CLK1 (129-end) (expressed in Sf9 insect cells with an N-terminal GST tag) was purchased from SignalChem (Cat #C57-11G). Recombinant full length human MBP (expressed in E. Coli cells with an N-terminal GST tag.) was purchased from SignalChem (Cat #M42-54G). This assay, run in a 384-well plate format, is a generic method for measuring kinase activities using an ADP-Glo Kinase Assay Kit. The basic assay procedure involves two steps: (1) Enzymatic step: inhibitors are incubated with the kinase and then ATP (included in the ADP-Glo Kinase Assay Kit) and the MBP protein are added to start the enzymatic reaction; (2) Detection step: after the kinase reaction, first ADP-Glo™ Reagent is added to terminate the kinase reaction and deplete the remaining ATP. Second, the Kinase Detection Reagent is added to simultaneously convert ADP to ATP and allow the newly synthesized ATP to be measured using a luciferase/luciferin reaction. The light generated is measured using a luminometer.
# Briefly, CLK1 (16 nM) in the enzymatic buffer solutions (40 mM Tris, pH 7.5, 20 mM MgCl2, 0.1 mg/ml BSA, 50 μM DTT) were mixed with various concentrations of inhibitors (dissolved in 100% DMSO). These solutions were incubated for 30 minutes at 25° C., and subsequently a mixture of substrate peptide and ATP was added with the final peptide and ATP concentrations at 2 μM and 10 μM, respectively. The final reaction mixture of enzyme-substrate-ATP-compound was incubated for 60 minutes at 25° C.
# Afterwards ADP-Glo™ Reagent was added and the mixture was incubated at 25° C. for 60 minutes. Then Kinase Detection Reagent was added and the final mixture was incubated at 25° C. for 60 minutes. The luminescence signal of the final solution was measured on an Envision instrument (PerkinElmer). The percent (%) inhibition at each concentration of a compound is calculated relative to the luminescence signal in the Max and Min control wells contained within each assay plate. […] The concentrations and percent inhibition values for a test compound are plotted and the concentration of the compound required to achieve 50% inhibition (IC50) is determined with a four-parameter logistic dose response equation.
compound,measurement,setting,value
"O=C(O)CCN(C1=N/C(=C\c2ccc3c(c2)OCO3)C(=O)N1)c1ccccc1 [Example 27, (Z)-3-((4-(benzo[d][1,3]dioxol-5-ylmethylene)-5-oxo-4,5-dihydro-1H-imidazol-2-yl)(phenyl)amino)propanoic acid]",Avg 1 uM (average myocyte proliferation),[1],* (<10% growth relative to blank myocyte growth without compound added.)
same,Avg 3 uM (average myocyte proliferation),[1],* (<10% growth relative to blank myocyte growth without compound added.)
same,Avg 10 uM (average myocyte proliferation),[1],** (10%-50%)
same,pIC50,[2],5.00 to 6.00
"O=C1NC(Nc2ccccc2)=N/C1=C\c1ccc(=O)[nH]c1 [Example 9, (Z)-5-((5-oxo-2-(phenylamino)-1,5-dihydro-4H-imidazol-4-ylidene)methyl)pyridin-2(1H)-one]",Avg 1 uM (average myocyte proliferation),[1],* (<10% growth relative to blank myocyte growth without compound added.)
same,Avg 3 uM (average myocyte proliferation),[1],** (10%-50%)
same,Avg 10 uM (average myocyte proliferation),[1],** (10%-50%)
same,pIC50,[2],6.00 to 7.00
"Cn1ncc2cc(/C=C3\N=C(Nc4ccccc4)NC3=O)ccc21 [Example 77, (Z)-5-((1-methyl-1H-indazol-5-yl)methylene)-2-(phenylamino)-3,5-dihydro-4H-imidazol-4-one]",Avg 1 uM (average myocyte proliferation),[1],* (<10% growth relative to blank myocyte growth without compound added.)
same,Avg 3 uM (average myocyte proliferation),[1],* (<10% growth relative to blank myocyte growth without compound added.)
same,pIC50,[2],6.00 to 7.00
"COc1ccc(N(C)C2=N/C(=C\c3ccc4ncsc4c3)C(=O)N2)cc1 [Example 38, (Z)-5-(benzo[d]thiazol-6-ylmethylene)-2-((4-methoxyphenyl)(methyl)amino)-3,5-dihydro-4H-imidazol-4-one]",Avg 1 uM (average myocyte proliferation),[1],*** (>50%)
same,Avg 3 uM (average myocyte proliferation),[1],** (10%-50%)
same,Avg 10 uM (average myocyte proliferation),[1],*** (>50%)
same,pIC50,[2],6.00 to 7.00
"O=C1NC(Nc2ccccc2)=N/C1=C\c1ccc2nccnc2c1 [Example 16, (Z)-2-(phenylamino)-5-(quinoxalin-6-ylmethylene)-3,5-dihydro-4H-imidazol-4-one]",Avg 1 uM (average myocyte proliferation),[1],* (<10% growth relative to blank myocyte growth without compound added.)
same,Avg 3 uM (average myocyte proliferation),[1],* (<10% growth relative to blank myocyte growth without compound added.)
same,pIC50,[2],> 7.00
"O=C1NC(Nc2ccc3ncsc3c2)=N/C1=C\c1ccc2scnc2c1 [Example 57, (Z)-5-(benzo[d]thiazol-5-ylmethylene)-2-(benzo[d]thiazol-6-ylamino)-3,5-dihydro-4H-imidazol-4-one]",Avg 1 uM (average myocyte proliferation),[1],* (<10% growth relative to blank myocyte growth without compound added.)
same,Avg 3 uM (average myocyte proliferation),[1],* (<10% growth relative to blank myocyte growth without compound added.)
same,pIC50,[2],> 7.00
"CN(CC1CC1)C1=N/C(=C\c2ccc3c(c2)OCO3)C(=O)N1 [Example 11, (Z)-5-(benzo[d][1,3]dioxol-5-ylmethylene)-2-((cyclopropylmethyl)(methyl)amino)-3,5-dihydro-4H-imidazol-4-one]",Avg 1 uM (average myocyte proliferation),[1],** (10%-50%)
same,Avg 3 uM (average myocyte proliferation),[1],** (10%-50%)
same,Avg 10 uM (average myocyte proliferation),[1],*** (>50%)
same,pIC50,[2],6.00 to 7.00
"CN(C1=N/C(=C\c2ccc3ncsc3c2)C(=O)N1)c1ccccc1 [Example 7, (Z)-5-(benzo[d]thiazol-6-ylmethylene)-2-(methyl(phenyl)amino)-3,5-dihydro-4H-imidazol-4-one]",Avg 1 uM (average myocyte proliferation),[1],* (<10% growth relative to blank myocyte growth without compound added.)
same,Avg 3 uM (average myocyte proliferation),[1],** (10%-50%)
same,Avg 10 uM (average myocyte proliferation),[1],* (<10% growth relative to blank myocyte growth without compound added.)
same,pIC50,[2],6.00 to 7.00
